Assay results from ChEMBL document CHEMBL4229347, “Design, synthesis, and biological evaluation of novel ubiquitin-activating enzyme inhibitors” (2018).
Activity calls are given as the source filed them. The calls are words filed in the database; no cut-off is given here.

Columns and labels:
[1] = target: T1, Ubiquitin-like modifier-activating enzyme 1 (Homo sapiens) (UniProt P22314); assay: Inhibition of recombinant human E1 expressed in Escherichia coli BL21(DE3) assessed as reduction in biotin-labelled ubiquitin-E1 conjugate formation pretreated for 30 mins followed by biotin-labelled ubiquitin addition and measured after 30 mins by Western blot analysis
T1 sequence (whole entry): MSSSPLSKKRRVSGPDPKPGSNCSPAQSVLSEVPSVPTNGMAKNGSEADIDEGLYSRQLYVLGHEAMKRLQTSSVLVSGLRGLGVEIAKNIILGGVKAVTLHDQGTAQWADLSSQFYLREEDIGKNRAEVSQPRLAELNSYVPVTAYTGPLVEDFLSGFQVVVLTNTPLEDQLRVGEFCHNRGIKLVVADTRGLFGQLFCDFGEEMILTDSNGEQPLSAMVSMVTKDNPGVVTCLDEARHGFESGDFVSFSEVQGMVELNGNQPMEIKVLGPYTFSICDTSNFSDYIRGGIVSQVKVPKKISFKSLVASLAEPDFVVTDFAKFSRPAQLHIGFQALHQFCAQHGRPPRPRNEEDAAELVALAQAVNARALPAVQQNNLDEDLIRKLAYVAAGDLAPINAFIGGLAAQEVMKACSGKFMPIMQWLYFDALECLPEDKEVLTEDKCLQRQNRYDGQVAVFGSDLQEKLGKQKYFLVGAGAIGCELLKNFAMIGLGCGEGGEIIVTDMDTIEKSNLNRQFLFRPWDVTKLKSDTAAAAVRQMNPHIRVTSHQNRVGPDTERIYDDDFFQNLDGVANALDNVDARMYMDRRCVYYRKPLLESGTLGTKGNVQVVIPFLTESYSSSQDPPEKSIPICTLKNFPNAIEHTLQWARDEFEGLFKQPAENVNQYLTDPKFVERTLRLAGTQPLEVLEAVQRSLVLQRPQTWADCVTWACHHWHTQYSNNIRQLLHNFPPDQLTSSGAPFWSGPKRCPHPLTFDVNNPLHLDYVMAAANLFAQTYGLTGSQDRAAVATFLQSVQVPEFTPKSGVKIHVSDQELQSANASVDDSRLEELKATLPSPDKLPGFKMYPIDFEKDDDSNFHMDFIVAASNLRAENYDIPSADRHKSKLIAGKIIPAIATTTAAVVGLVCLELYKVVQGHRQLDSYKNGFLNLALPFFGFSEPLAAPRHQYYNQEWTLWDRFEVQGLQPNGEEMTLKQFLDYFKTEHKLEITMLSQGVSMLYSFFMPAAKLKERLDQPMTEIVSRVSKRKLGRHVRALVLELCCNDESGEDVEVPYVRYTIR

[2] = target: T1, Ubiquitin-like modifier-activating enzyme 1 (Homo sapiens); assay: (§1) Reversible inhibition of recombinant human E1 expressed in Escherichia coli BL21(DE3) assessed as reduction in biotin-labelled ubiquitin-E1 conjugate formation at 100 uM pretreated for 60 mins followed by 2.5 uM biotin-labelled ubiquitin addition for 30 mins and subsequent 5 uM biotin-labelled ubiquitin addition by Western blot analysis
[3] = target: T1, Ubiquitin-like modifier-activating enzyme 1 (Homo sapiens); assay: as §1, with “ubiquitin addition measured after 30 mins by Western” for “ubiquitin addition by Western”
[4] = target: Ubiquitin-conjugating enzyme E2 D2 (Homo sapiens) (UniProt P62837); assay: Inhibition of E2 (unknown origin) assessed as reduction in biotin-labelled ubiquitin-E2 conjugate formation pretreated for 30 mins followed by biotin-labelled ubiquitin addition and measured after 60 mins in presence of E1 by Western blot analysis
[5] = target: T1, Ubiquitin-like modifier-activating enzyme 1 (Homo sapiens); assay: Inhibition of E1 in human MCF7 cells assessed as increase in p53 levels at 100 uM measured after 24 hrs by Western blot analysis; assay type: cell-based
MCF7 = assay: Growth inhibition of human MCF7 cells after 72 hrs by alamar blue assay; assay type: functional; settings: MCF7, 72 h
[6] = target: Ubiquitin-conjugating enzyme E2 D2 (Homo sapiens) (UniProt P62837); assay: Inhibition of E2 (unknown origin) assessed as reduction in biotin-labelled ubiquitin-E2 conjugate formation at 10 to 1000 uM pretreated for 30 mins followed by biotin-labelled ubiquitin addition and measured after 60 mins in presence of E1 by Western blot analysis
[7] = target: T1, Ubiquitin-like modifier-activating enzyme 1 (Homo sapiens); assay: Inhibition of recombinant human E1 expressed in Escherichia coli BL21(DE3) assessed as reduction in biotin-labelled ubiquitin-E1 conjugate formation up to 1000 uM pretreated for 30 mins followed by biotin-labelled ubiquitin addition and measured after 30 mins by Western blot analysis

Chain of Ubiquitin-conjugating enzyme E2 D2 (Homo sapiens) (P62837 whole entry, looked up): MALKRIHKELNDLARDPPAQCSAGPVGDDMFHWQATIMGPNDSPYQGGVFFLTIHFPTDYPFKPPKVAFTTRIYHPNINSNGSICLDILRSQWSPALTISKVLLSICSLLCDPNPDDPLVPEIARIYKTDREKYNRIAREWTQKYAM

COC(=O)CNC(=O)CCCc1ccc(OCCCNC(=O)c2ccccc2)c(CCCC(C)C)c1
inhibition [1]: Dose-dependent effect
inhibition [2]: Active
inhibition [3]: Active
inhibition [4]: Dose-dependent effect
inhibition [5]: Active
GI50 (MCF7): 63.4 µM

COC(=O)CNC(=O)CCCc1ccc(OCCCN)c(CCCC(C)C)c1
inhibition [6]: inactive
inhibition [7]: inactive

COC(=O)CNC(=O)CCCc1ccc(OCCCNC(C)=O)c(CCCC(C)C)c1
inhibition [6]: inactive
inhibition [7]: Active
